Source: PMC9910069 (ACS Omega, 2023)

Columns and labels:
[1] = molecular target: Electric eel AChE (type-VI-S) (Electrophorus electricus, UniProt O42275); assay: Anti-cholinesterase inhibition assay; format: biochemical
equine BChE = equine BChE (Equus caballus, UniProt P81908); assay: Anti-cholinesterase inhibition assay; format: biochemical
equine BChE, sequence (P81908 whole entry): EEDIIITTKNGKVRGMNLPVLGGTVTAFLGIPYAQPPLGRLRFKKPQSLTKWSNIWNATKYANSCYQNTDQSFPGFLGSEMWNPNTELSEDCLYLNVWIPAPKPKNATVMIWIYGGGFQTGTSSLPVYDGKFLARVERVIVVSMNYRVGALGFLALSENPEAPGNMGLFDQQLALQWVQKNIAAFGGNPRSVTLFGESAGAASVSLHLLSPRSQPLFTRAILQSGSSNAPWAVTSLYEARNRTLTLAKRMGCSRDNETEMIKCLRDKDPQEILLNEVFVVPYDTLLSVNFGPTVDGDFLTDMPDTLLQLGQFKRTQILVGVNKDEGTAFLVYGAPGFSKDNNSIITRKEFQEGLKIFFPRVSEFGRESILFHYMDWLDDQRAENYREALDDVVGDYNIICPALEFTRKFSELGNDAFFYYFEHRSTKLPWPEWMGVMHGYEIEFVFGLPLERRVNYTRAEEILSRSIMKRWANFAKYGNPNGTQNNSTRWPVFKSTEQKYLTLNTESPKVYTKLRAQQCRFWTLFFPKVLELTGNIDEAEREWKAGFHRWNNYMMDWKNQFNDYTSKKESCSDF

Electric eel AChE (type-VI-S), sequence (O42275 24-633): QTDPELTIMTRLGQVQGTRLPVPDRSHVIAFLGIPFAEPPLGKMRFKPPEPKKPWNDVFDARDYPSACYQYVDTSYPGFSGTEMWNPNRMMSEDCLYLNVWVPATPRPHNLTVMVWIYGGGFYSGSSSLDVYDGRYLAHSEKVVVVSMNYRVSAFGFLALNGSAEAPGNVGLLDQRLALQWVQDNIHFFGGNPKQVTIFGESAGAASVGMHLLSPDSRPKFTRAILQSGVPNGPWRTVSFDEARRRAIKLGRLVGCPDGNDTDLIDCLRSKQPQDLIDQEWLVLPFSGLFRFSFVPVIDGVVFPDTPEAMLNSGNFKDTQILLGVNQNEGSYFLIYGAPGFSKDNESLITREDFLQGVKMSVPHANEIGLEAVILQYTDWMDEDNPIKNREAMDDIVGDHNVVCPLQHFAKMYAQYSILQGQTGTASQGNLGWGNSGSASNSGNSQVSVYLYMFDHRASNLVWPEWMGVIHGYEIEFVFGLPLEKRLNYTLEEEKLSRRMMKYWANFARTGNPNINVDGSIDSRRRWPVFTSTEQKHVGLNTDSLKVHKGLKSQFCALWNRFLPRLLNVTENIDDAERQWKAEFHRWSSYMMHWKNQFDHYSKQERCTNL

Row | Compound | IC50 [1] [µM] | IC50 (equine BChE) [µM]
1 | CCOc1ccc(C=NNC(=S)NCC(=O)c2cccc(C)c2)cc1 [Compound 5, 2-(4-Ethoxybenzylidene)-N-(2-oxo-2-(m-tolyl)ethyl)hydrazine-1-carbothioamide] | 295.12 ± 0.12 | –
2 | CCOc1ccc(C=NNC(=S)NCC(=O)c2ccc(Br)cc2)cc1 [Compound 6, N-(2-(4-Bromophenyl)-2-oxoethyl)-2-(4-ethoxybenzylidene)hydrazine-1-carbothioamide] | 160.04 ± 0.02 | 190.21 ± 0.13
3 | CCOc1ccc(C=NNC(=S)NCC(=O)c2ccc(Cl)cc2)cc1 [Compound 7, N-(2-(4-Chlorophenyl)-2-oxoethyl)-2-(4-ethoxybenzylidene)hydrazine-1-carbothioamide] | 140.52 ± 0.11 | –
4 | CCOc1ccc(C=NNC(=S)NCC(=O)c2ccccc2)cc1 [Compound 8, 2-(4-Ethoxybenzylidene)-N-(2-oxo-2-phenylethyl)hydrazine-1-carbothioamide] | 220.22 ± 0.14 | 260.21 ± 0.23
5 | CCOc1ccc(C=NNC(=S)NCC(=O)c2ccccc2O)cc1 [Compound 9, 2-(4-Ethoxybenzylidene)-N-(2-(2-hydroxyphenyl)-2-oxoethyl)hydrazine-1-carbothioamide] | – | 147.2 ± 0.09
6 | CCOc1ccc(C=NNC(=S)NCC(=O)c2ccc(Cl)cc2Cl)cc1 [Compound 10, N-(2-(2,4-Dichlorophenyl)-2-oxoethyl)-2-(4-ethoxybenzylidene)hydrazine-1-carbothioamide] | 275.71 ± 0.12 | –
7 | Cc1ccc(C(=O)CNC(=S)NN=Cc2ccc([N+](=O)[O-])cc2)cc1 [Compound 12, 2-(4-Nitrobenzylidene)-N-(2-oxo-2-(p-tolyl)ethyl)hydrazine-1-carbothioamide] | 280.24 ± 0.21 | 260.38 ± 0.25
8 | O=C(CNC(=S)NN=Cc1ccc([N+](=O)[O-])cc1)c1ccccc1Br [Compound 17, N-(2-(2-Bromophenyl)-2-oxoethyl)-2-(4-nitrobenzylidene)hydrazine-1-carbothioamide] | 114.6 ± 0.15 | 150.4 ± 0.18
